# Measurements reported in patent US9358207B2, “Flashmelt oral dosage formulation” (OTSUKA PHARMACEUTICAL CO., LTD., priority 2000, dated 2016).
# Assay: Hygroscopicity: water content of crystals after storage in dessicator
# Type: physicochemical
# Conditions: after 24 hours inside a dessicator at 60° C. and humidity of 100%
# Protocol: For example, Aripiprazole Anhydride Crystals B of the present invention maintain a water content of 0.4% or less after 24 hours inside a dessicator set at a temperature of 60° C. and a humidity of 100%.
# Well-known methods of measuring water content can be used as long as they are methods commonly used for measuring the water content of crystals. For example, a method such as the Karl Fischer method can be used.
smiles,measurement,value
"O=C1CCc2ccc(OCCCCN3CCN(c4cccc(Cl)c4Cl)CC3)cc2N1 [Aripiprazole Anhydride Crystals B, aripiprazole]",water content,≤ 0.4%
